Data on 23 compounds can be found in paper PMC11533140 (Frontiers in Pharmacology, 2024).

Molecules are shown by their SMILES. Where two headings read alike, the source gives them in different places.

The target in one data set is PI3Kα (Homo sapiens, UniProt P42336). Kind of data set: in vitro PI3Kα kinase inhibition assay. The data set is classed as biochemical. Here is the method:
(§1) The in vitro inhibition assays of all final compounds against PI3K were performed by Shanghai ChemPartner Co., Ltd. (China). The antiproliferative activities of the compounds against A2780, U87MG, MCF7, and DU145 cell lines were tested by the standard MTT method. CHO cells stably expressing the transcript of hERG were investigated by the automated whole-cell patch clamp technique, using the QPatch system (Sophion). The compound was tested with Salmonella typhimurium strains TA98 and TA100 with the plate incorporation method at seven doses. Apoptosis was evaluated using the One-Step TUNEL Apoptosis Assay Kit (FITC) (cat. no. MA0223; Meilunbio, Dalian, China), according to the manufacturer’s protocol. Male and female SD rats (SLRC Laboratory Animal Inc., Shanghai, China) were used, and the detailed pharmacokinetic procedures are described in Supplementary Material.

The target in another data set is PI3Kβ (Homo sapiens, UniProt P42338). Kind of data set: in vitro PI3Kβ inhibition assay (isoform selectivity). The data set is classed as biochemical. As to conditions: Table 4. Here is the method:
as §1

Another data set deals with PI3Kγ (Homo sapiens, UniProt P48736). The data set can be described thus: in vitro PI3Kγ inhibition assay (isoform selectivity). The data set is classed as biochemical. As to conditions: Table 4. On the procedure:
as §1

A further data set addresses PI3Kδ (Homo sapiens, UniProt O00329). Kind of data set: in vitro PI3Kδ inhibition assay (isoform selectivity). In kind it is biochemical. As to conditions: Table 4. On the procedure:
as §1

The target in the next data set is mTOR (Homo sapiens, UniProt P42345). The data set can be described thus: in vitro mTOR inhibition assay (selectivity). In kind it is biochemical. As to conditions: Table 4. On the procedure:
as §1

The next data set relates to A2780 cells. The data set can be described thus: MTT antiproliferative assay, A2780. As to conditions: Homo sapiens. The data set is classed as cell-based. On the procedure: as §1
The subject of a further data set is U87MG cells. The data set can be described thus: MTT antiproliferative assay, U87MG. The data set is classed as cell-based. As to conditions: for IC50: Homo sapiens, U-87 MG. Here is the method:
as §1

The test system of a further data set is MCF7 cells. The data set can be described thus: MTT antiproliferative assay, MCF7. As to conditions: Homo sapiens. In kind it is cell-based. Here is the method:
as §1

For the next data set, the system named is DU145 cells. The data set can be described thus: MTT antiproliferative assay, DU145. The data set is classed as cell-based. As to conditions: for IC50: Homo sapiens, DU-145. On the procedure: as §1
The test system of a further data set is MRC-5 cells. The data set can be described thus: inhibitory activity on normal cells, MRC-5. Conditions: Homo sapiens, MRC5. The data set is classed as cell-based. An excerpt: (§2) Several clinical PI3K candidates were severely intolerable to patients due to fatal hepatotoxicity and, thus, failed in clinical trials. Thus, evaluating the selectivity of compounds toward normal cells might reduce the risk of clinical failure of new compounds.

For another data set, the system named is HL-7702 cells. Kind of data set: inhibitory activity on normal cells, HL-7702. The data set is classed as cell-based. As to conditions: Homo sapiens, L02.
Excerpt: as §2

Data set [1] deals with Salmonella typhimurium TA98. The data set can be described thus: Ames test, plate incorporation, TA98. In kind it is cell-based. Conditions: control, dose not given. On the procedure:
as §1
(§3) S. typhimurium TA98 and TA100 were selected to conduct the Ames experiment to investigate the genotoxicity risk of compound 17p.

For data set [2], the system named is Salmonella typhimurium TA100. Kind of data set: Ames test, plate incorporation, TA100. Conditions: control, dose not given. In kind it is cell-based. Here is the method: as §1, §3
The next data set concerns the target T1, hERG (Homo sapiens, UniProt Q12809).
T1 construct: expressed in transfected cells
The data set can be described thus: hERG automated whole-cell patch clamp (QPatch), CHO cells. The data set is classed as cell-based. Conditions: human, CHO cells stably expressing hERG; CHO cells expressing hERG, patch clamp; read-out: IC50 on hERG potassium currents. Here is the method:
as §1
To evaluate cardiotoxicity, it is necessary to test inhibitory activity on hERG potassium currents.

[3] abbreviates: Figure 5 activity bins, read-out: weak activity IC50 in SAR figure (PI3Kα).
The mark [4] stands for this setting: mean of three independent experiments, read-out: IC50 against PI3Kα.
The mark [5] stands for this setting: Figure 5 activity bins, read-out: IC50 range in SAR figure (PI3Kα).
The mark [6] stands for this setting: mean of three independent experiments.
The mark [7] stands for this setting: Table 4, read-out: IC50 PI3Kα (isoform selectivity study).

Chain of PI3Kα (P42336 whole entry): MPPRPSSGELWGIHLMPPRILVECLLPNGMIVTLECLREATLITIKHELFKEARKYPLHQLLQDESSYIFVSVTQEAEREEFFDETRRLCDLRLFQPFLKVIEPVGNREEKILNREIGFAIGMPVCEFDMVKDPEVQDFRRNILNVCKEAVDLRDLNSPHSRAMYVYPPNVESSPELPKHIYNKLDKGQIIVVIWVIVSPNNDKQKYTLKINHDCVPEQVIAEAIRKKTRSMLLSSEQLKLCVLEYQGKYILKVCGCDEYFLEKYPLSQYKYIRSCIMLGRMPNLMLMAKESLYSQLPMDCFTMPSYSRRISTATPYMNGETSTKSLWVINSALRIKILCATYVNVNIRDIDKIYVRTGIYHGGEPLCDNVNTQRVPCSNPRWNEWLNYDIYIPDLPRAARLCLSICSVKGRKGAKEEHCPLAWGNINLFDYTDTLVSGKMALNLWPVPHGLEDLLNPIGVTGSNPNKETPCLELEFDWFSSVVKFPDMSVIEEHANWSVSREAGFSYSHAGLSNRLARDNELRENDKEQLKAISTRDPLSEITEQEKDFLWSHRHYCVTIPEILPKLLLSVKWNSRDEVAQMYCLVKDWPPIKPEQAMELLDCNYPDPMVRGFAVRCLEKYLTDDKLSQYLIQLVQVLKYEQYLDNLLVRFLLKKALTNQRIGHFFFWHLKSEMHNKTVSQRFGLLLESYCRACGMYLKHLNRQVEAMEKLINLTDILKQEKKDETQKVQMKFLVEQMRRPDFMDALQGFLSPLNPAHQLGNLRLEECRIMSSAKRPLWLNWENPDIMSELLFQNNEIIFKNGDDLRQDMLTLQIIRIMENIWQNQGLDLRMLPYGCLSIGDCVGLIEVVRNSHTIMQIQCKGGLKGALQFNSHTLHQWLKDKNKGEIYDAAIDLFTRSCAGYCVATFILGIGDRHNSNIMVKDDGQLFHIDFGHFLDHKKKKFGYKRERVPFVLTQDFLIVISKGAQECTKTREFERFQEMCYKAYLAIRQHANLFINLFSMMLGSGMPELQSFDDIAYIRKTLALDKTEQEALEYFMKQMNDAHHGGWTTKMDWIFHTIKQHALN
Chain of PI3Kα (P27986 whole entry partner): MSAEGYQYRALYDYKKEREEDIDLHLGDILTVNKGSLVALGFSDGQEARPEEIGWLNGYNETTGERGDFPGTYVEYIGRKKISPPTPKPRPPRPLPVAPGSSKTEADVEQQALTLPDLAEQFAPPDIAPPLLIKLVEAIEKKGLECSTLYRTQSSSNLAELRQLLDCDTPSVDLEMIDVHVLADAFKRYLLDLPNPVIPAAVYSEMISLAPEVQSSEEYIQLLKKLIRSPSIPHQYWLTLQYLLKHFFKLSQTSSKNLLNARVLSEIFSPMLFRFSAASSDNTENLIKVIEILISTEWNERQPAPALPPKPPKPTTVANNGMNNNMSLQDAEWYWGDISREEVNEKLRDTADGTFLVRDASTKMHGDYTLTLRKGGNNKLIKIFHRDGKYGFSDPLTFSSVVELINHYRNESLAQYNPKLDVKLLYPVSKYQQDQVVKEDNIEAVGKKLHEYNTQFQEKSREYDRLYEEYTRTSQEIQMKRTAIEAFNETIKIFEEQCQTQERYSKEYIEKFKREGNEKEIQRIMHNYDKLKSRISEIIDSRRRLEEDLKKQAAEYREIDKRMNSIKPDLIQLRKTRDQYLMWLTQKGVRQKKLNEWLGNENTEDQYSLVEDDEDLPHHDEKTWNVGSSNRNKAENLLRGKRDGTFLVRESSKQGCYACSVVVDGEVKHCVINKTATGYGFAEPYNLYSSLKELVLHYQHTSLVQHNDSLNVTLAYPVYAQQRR
Chain of PI3Kδ (O00329 whole entry, canonical isoform): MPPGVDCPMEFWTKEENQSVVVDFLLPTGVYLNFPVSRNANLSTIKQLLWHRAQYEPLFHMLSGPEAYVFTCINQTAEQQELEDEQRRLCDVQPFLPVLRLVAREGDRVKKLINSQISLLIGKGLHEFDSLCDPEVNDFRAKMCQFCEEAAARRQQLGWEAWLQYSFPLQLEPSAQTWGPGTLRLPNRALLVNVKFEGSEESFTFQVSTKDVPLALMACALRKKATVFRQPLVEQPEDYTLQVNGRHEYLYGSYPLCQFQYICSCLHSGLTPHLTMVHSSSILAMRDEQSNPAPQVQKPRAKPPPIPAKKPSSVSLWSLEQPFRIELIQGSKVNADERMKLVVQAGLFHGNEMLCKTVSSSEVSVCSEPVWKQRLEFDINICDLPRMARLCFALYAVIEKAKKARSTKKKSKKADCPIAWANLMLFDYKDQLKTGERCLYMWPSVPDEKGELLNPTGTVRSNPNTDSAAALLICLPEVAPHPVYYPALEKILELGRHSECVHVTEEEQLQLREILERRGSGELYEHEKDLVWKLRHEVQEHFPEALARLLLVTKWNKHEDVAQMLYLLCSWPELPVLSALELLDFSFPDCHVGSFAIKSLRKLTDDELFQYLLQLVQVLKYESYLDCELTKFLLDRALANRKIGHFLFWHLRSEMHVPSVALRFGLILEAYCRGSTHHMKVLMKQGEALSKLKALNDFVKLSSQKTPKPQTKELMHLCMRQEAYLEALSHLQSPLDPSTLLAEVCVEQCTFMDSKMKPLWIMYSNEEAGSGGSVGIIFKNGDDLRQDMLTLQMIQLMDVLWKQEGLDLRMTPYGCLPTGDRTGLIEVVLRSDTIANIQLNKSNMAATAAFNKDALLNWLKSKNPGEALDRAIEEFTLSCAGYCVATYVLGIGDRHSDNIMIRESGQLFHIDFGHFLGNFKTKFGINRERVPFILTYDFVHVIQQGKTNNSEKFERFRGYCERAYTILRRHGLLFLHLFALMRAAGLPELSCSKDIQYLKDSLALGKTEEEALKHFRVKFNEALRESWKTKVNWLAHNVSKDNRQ
Chain of PI3Kδ (P27986 whole entry partner, canonical isoform): as the sequence (P27986 whole entry partner) above
Chain of PI3Kβ (P42338 whole entry, canonical isoform): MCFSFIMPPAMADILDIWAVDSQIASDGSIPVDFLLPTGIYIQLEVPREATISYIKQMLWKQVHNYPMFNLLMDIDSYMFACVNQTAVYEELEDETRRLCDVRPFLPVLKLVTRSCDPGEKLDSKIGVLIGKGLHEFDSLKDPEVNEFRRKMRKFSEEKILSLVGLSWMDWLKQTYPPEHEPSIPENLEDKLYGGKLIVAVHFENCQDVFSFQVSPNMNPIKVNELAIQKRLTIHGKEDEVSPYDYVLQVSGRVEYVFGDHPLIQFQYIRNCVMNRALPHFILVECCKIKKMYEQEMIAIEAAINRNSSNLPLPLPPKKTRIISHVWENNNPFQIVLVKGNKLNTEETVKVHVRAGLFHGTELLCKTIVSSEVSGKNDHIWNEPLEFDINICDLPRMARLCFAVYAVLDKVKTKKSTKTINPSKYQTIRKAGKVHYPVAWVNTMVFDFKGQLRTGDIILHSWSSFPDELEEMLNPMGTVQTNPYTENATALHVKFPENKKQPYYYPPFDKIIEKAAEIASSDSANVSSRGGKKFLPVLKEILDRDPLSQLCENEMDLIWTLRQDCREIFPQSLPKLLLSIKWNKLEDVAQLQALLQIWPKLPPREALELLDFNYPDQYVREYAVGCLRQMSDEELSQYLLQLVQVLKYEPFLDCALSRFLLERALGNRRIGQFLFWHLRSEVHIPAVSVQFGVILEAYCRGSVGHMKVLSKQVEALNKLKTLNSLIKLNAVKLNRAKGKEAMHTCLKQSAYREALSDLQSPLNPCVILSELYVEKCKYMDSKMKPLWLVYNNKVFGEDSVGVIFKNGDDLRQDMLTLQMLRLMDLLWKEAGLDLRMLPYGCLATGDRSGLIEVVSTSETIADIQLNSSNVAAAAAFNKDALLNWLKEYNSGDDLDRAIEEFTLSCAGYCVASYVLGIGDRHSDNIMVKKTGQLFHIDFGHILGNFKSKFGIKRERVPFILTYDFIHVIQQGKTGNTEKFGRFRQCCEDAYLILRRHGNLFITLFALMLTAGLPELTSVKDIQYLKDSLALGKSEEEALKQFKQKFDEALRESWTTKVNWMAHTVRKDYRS
Chain of PI3Kβ (P27986 whole entry partner, canonical isoform): as the sequence (P27986 whole entry partner) above
Chain of PI3Kγ (P48736 whole entry, canonical isoform): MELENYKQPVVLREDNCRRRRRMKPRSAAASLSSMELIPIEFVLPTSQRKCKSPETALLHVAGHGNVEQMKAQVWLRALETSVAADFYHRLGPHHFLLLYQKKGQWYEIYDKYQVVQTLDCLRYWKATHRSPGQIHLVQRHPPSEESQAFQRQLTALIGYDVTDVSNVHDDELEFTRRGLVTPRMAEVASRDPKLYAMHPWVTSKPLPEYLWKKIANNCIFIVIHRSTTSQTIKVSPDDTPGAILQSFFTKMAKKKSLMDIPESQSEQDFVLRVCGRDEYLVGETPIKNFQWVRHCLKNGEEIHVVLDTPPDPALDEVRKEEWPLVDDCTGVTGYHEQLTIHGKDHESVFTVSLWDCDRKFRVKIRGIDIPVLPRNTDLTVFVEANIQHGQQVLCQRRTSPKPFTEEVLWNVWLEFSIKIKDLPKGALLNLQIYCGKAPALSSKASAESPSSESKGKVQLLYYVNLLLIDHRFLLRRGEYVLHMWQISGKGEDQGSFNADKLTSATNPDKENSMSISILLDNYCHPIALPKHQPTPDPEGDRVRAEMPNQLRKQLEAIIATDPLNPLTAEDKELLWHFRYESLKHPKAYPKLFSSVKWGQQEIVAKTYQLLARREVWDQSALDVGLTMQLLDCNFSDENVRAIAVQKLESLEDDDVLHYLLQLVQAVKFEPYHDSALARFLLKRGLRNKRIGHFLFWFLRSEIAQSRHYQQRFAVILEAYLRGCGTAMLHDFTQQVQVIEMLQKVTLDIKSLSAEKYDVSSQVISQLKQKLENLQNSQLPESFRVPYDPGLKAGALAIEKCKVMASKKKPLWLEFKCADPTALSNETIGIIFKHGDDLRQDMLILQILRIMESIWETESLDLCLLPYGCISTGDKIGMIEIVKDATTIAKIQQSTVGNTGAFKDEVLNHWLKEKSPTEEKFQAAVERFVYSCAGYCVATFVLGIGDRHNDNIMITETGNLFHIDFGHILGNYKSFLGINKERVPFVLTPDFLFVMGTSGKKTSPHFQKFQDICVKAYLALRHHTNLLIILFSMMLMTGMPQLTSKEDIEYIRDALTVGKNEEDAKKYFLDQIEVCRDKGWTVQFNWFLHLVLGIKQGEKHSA

Regarding `N#Cc1c(-c2ccncc2)nc(N2CCOCC2)nc1N1CCOCC1` [Compound 17j], the results for the IC50 on PI3Kα (setting [3]) and on PI3Kα (setting [4]) were > 1 µM and 3.04 µM, respectively.

Consider `CCOC(=O)C1CCN(c2nc(-c3cnc(N)cc3C(F)(F)F)cc(N3CCOCC3)n2)CC1` [Compound 12b], for which the IC50 at PI3Kα (setting [4]) is 0.685 ± 0.0626 µM.

As for `N#Cc1c(-c2cccc3[nH]ncc23)nc(N2CCOCC2)nc1N1CCOCC1` [Compound 17b], the results for the IC50 on PI3Kα (setting [5]) and on PI3Kα (setting [4]) were 0.03 to 0.3 µM and 0.254 ± 0.0269 µM, respectively.

As to `c1nn(C2CCNCC2)cc1-c1cc(N2CCOCC2)nc(N2CCOCC2)n1` [Compound 12c], at PI3Kα (setting [6]), the “IC50 against PI3Kα” value is recorded as “no activity”. The IC50 on PI3Kα (setting [4]) was > 10 µM.

Take `N#Cc1c(-c2ccc(O)cc2)nc(N2CCOCC2)nc1N1CCOCC1` [Compound 17f]: the IC50 was 0.4 to 0.8 µM on PI3Kα (setting [5]) and 0.473 ± 0.0283 µM at PI3Kα (setting [4]).

In the case of `COc1ccc(-c2cc(N3CCOCC3)nc(N3CCOCC3)n2)cn1` [Compound 12d], at PI3Kα (setting [6]), the “IC50 against PI3Kα” value is reported as “poor activity”. For the same compound, the concentration for half-maximal inhibition (IC50) at PI3Kα (setting [4]) came to 1.01 µM.

For `CNc1ncc(-c2nc(N3CCOCC3)nc(N3CCOCC3)c2C#N)cn1` [Compound 17o], the half-inhibitory concentration (IC50) on PI3Kα (setting [5]) was 0.03 to 0.3 µM; on PI3Kα (setting [7]), 0.0347 ± 0.0046 µM; at PI3Kα (setting [4]), 0.0347 ± 0.0021 µM; at PI3Kβ it was 0.176 ± 0.0263 µM; at PI3Kγ, 0.176 ± 0.0159 µM; on PI3Kδ, 0.204 ± 0.0222 µM. For the same compound, the IC50 is 0.204 ± 0.0301 µM on mTOR; 1.13 ± 0.1 µM with A2780 cells; 4.19 ± 0.53 µM in the data set with U87MG cells; 1.16 ± 0.12 µM with MCF7 cells; 5.05 ± 0.47 µM with DU145 cells.

On to `N#Cc1c(-c2ccc(N)cc2)nc(N2CCOCC2)nc1N1CCOCC1` [Compound 17h], for which the IC50 at PI3Kα (setting [5]) is 0.4 to 0.8 µM; on PI3Kα (setting [4]), 0.477 ± 0.0524 µM.

Regarding `N#Cc1c(-c2cccc(O)c2)nc(N2CCOCC2)nc1N1CCOCC1` [Compound 17e], the IC50 is 0.03 to 0.3 µM at PI3Kα (setting [5]); 0.0861 ± 0.0078 µM on PI3Kα (setting [7]); 0.0885 ± 0.0061 µM at PI3Kα (setting [4]); 0.152 ± 0.0187 µM at PI3Kβ; 0.318 ± 0.019 µM at PI3Kγ; 0.0556 ± 0.0038 µM against PI3Kδ. Further, the IC50 at mTOR was > 10 µM; with A2780 cells, 0.39 ± 0.03 µM; with U87MG cells it was 1.75 ± 0.22 µM; with MCF7 cells it was 0.37 ± 0.03 µM; in the data set on DU145 cells, 1.52 ± 0.11 µM; in the data set on MRC-5 cells it was 2.19 ± 0.11 µM. Also, in the data set on HL-7702 cells, the IC50 amounted to 6.17 ± 0.75 µM.

Consider `N#Cc1c(-c2cccnc2)nc(N2CCOCC2)nc1N1CCOCC1` [Compound 17i], for which the figures for the IC50 at PI3Kα (setting [5]) and at PI3Kα (setting [4]) were 0.4 to 0.8 µM and 0.792 ± 0.0877 µM, respectively.

In the case of `c1nn(C2CCNCC2)cc1-c1nc(N2CCOCC2)nc(N2CCOCC2)n1` [Compound 12e], the “IC50 against PI3Kα” value at PI3Kα (setting [6]) is reported as “no activity”. The half-inhibitory concentration (IC50) on PI3Kα (setting [4]) is > 10 µM.

As to `N#Cc1c(-c2cn[nH]c2)nc(N2CCOCC2)nc1N1CCOCC1` [Compound 17a], the half-inhibitory concentration (IC50) at PI3Kα (setting [5]) is 0.03 to 0.3 µM; on PI3Kα (setting [4]), 0.162 ± 0.0131 µM.

Consider `Cc1nn(C)cc1-c1nc(N2CCOCC2)nc(N2CCOCC2)c1C#N` [Compound 17c], for which the IC50 on PI3Kα (setting [4]) was 1.36 µM.

For `Cc1cc(N)ncc1-c1nc(N2CCOCC2)nc(N2CCOCC2)c1C#N` [Compound 17l], the values for the IC50 at PI3Kα (setting [5]) and at PI3Kα (setting [4]) were 0.4 to 0.8 µM and 0.443 ± 0.0397 µM, respectively.

In the case of `N#Cc1c(-c2cncnc2)nc(N2CCOCC2)nc1N1CCOCC1` [Compound 17n], the IC50 at PI3Kα (setting [5]) was 0.4 to 0.8 µM; on PI3Kα (setting [4]), 0.604 ± 0.103 µM.

For the compound `CCOC(=O)C1CCN(c2cc(-c3cnc(N)cc3C(F)(F)F)nc(N3CCOCC3)n2)CC1` [Compound 12a], the IC50 on PI3Kα (setting [4]) was 2.29 µM.

As to `CCOC(=O)C1CCN(c2nc(-c3cnc(N)cc3C(F)(F)F)nc(N3CCOCC3)n2)CC1` [Compound 12f], the IC50 at PI3Kα (setting [4]) came to 0.371 ± 0.0454 µM.

Consider `N#Cc1c(-c2cnc(N)cc2C(F)(F)F)nc(N2CCOCC2)nc1N1CCOCC1` [Compound 17m], for which the IC50 is 0.03 to 0.3 µM on PI3Kα (setting [5]); 0.104 ± 0.0125 µM on PI3Kα (setting [4]); 2.72 ± 0.19 µM in the data set with A2780 cells; 66.1 ± 9.94 µM with U87MG cells; 1.07 ± 0.09 µM in the data set on MCF7 cells; 12.4 ± 1.47 µM in the data set on DU145 cells. Moreover, in the data set with U87MG cells, the “IC50 U87MG” value is on record as “no inhibitory effects”. The “IC50 DU145” value with DU145 cells was “no inhibitory effects”.

As for `Nc1cc(C(F)(F)F)c(-c2cc(N3CCOCC3)nc(N3CCOCC3)n2)cn1` [BKM-120, Buparlisib, reference compound], the IC50 in the data set on A2780 cells stood at 0.41 ± 0.06 µM; in the data set with U87MG cells, 2.15 ± 0.19 µM; in the data set on MCF7 cells, 0.28 ± 0.04 µM; with DU145 cells it was 2.24 ± 0.14 µM; in the data set with MRC-5 cells, 0.98 ± 0.1 µM; in the data set with HL-7702 cells, 0.89 ± 0.06 µM. The “Number of bacterial colony revertant mutations (mean ± SD) TA98” value in [1] was determined as 241 ± 55. The “Number of bacterial colony revertant mutations (mean ± SD) TA100” value in [2] worked out at 555 ± 94.

Consider `N#Cc1c(-c2ccc(N)nc2)nc(N2CCOCC2)nc1N1CCOCC1` [Compound 17k], for which the figures for the half-inhibitory concentration (IC50) at PI3Kα (setting [5]) and on PI3Kα (setting [4]) were 0.03 to 0.3 µM and 0.159 ± 0.0144 µM, respectively.

As for `COc1cc(N)c(Cl)cc1C(=O)NC1CCN(CCCOc2ccc(F)cc2)CC1OC` (stereo not shown) [Cisapride, reference compound], the 50% inhibitory concentration (IC50) at hERG was 0.41 ± 0.06 µM.

As to `COc1cccc(-c2nc(N3CCOCC3)nc(N3CCOCC3)c2C#N)c1` [Compound 17g], the IC50 at PI3Kα (setting [3]) is > 1 µM; at PI3Kα (setting [4]), 3.27 µM.

As for `N#Cc1c(-c2cnn(C3CCNCC3)c2)nc(N2CCOCC2)nc1N1CCOCC1` [Compound 17d], the “IC50 range in SAR figure (PI3Kα)” value against PI3Kα (Figure 5 activity bins) is reported as “no activity”. Moreover, the IC50 on PI3Kα (setting [4]) is > 10 µM.
